From patent publication US11160767B2, “4,4′-trans-dihydroxystilbene for use in treating cancer” (The George Washington University, a Congressionally …, priority 2017, dated 2021)

Columns and labels:
[1] = mouse, in vivo
Description: Xenograft mouse models. […] In xenograft studies, HCT116 (3×10^6 cells) and IGROV3/CP2 (5×10^6 cells) suspended in 100 μl of phosphate buffered saline (PBS, pH 7.4) were injected subcutaneously into the lower flank of the mice. Testing compounds were dissolved in DMSO/Tween 80/saline (10:10:80; v/v/v) buffer and were used to treat animals through intraperitoneal (i.p.) injection. […] The body weight of animals was measured throughout the study. Tumor diameters were measured with digital calipers, and the tumor volume in mm^3 was calculated by the formula: Volume=(width)^2×length/2.
HCT116 cells (5×10^6) were injected subcutaneously in nude mice and grown to approximately 100 mm^3 in volume. […] To study the preclinical toxicity of DHS, samples of hearts, livers, spleens, lung, and kidneys were collected on Day 38 and sections were stained for histological examination.

U2OS = test: In vitro cytotoxicity (SRB assay), U2OS; assay type: cell-based; settings: Homo sapiens, 72 hours
Description: (§1) Cell lines and cell culture. HCT116, U205, PANC-1, MDA-231 cell lines were purchased from the American Type Culture Collection (Rockville, Md., US). Cells were cultured in the DMEM medium (Lonza, Basel, Switzerland) containing 10% fetal bovine serum (Gibco, Grand Island, N.Y., US), 100 Units/ml penicillin, 100 Units/mL streptomycin, […] L-glutamine (Gibco, Grand Island, N.Y., US) at 37° C. in a humidified atmosphere with 5% CO2.
(§2) In vitro cytotoxicity assays. […] SRB assay (Vichai and Kirtikara, 2006) was performed and the absorbance at 510 nm was read with a plate reader. The proliferation rate was calculated according to the Manufacturer's instruction. The IC50 value for each compound was determined from dose-effect relationship using the CompuSyn software (version 1.0.1; CompuSyn, Inc, Paramus, N.J.) (Chou, 2006). Cell proliferating doubling time was monitored over a period of 72 hours.

RPK-9 cells = test: Combination DHS and gemcitabine, CI, RPK-9 cells; assay type: cell-based, human; settings: RPK-9, in vitro, 10 μM DHS
Description: In vitro cytotoxicity assays. Cells growing in the Log phase were treated with various compounds at different concentrations (generally 0.137 to 100 μM) for 72 hours at 37° C. SRB assay (Vichai and Kirtikara, 2006) was performed and the absorbance at 510 nm was read with a plate reader. The proliferation rate was calculated according to the Manufacturer's instruction. The IC50 value for each compound was determined from dose-effect relationship using the CompuSyn software (version 1.0.1; CompuSyn, Inc, Paramus, N.J.) (Chou, 2006). Cell proliferating doubling time was monitored over a period of 72 hours.
Next, the effect of combined treatment with DHS and gemcitabine on pancreatic tumor cells was investigated.

HCT116 = test: In vitro cytotoxicity (SRB assay), HCT116; assay type: cell-based; settings: Homo sapiens, HCT-116, 72 hours
Description: as §1, §2

And-1 = biological target: T1, And-1 (Homo sapiens, UniProt O75717); test: Cellular thermal shift assay, And-1; assay type: cell-based; settings: HCT116 cells
T1 construct: endogenous in cells; host or cells: HCT116
T1 sequence (O75717 whole entry): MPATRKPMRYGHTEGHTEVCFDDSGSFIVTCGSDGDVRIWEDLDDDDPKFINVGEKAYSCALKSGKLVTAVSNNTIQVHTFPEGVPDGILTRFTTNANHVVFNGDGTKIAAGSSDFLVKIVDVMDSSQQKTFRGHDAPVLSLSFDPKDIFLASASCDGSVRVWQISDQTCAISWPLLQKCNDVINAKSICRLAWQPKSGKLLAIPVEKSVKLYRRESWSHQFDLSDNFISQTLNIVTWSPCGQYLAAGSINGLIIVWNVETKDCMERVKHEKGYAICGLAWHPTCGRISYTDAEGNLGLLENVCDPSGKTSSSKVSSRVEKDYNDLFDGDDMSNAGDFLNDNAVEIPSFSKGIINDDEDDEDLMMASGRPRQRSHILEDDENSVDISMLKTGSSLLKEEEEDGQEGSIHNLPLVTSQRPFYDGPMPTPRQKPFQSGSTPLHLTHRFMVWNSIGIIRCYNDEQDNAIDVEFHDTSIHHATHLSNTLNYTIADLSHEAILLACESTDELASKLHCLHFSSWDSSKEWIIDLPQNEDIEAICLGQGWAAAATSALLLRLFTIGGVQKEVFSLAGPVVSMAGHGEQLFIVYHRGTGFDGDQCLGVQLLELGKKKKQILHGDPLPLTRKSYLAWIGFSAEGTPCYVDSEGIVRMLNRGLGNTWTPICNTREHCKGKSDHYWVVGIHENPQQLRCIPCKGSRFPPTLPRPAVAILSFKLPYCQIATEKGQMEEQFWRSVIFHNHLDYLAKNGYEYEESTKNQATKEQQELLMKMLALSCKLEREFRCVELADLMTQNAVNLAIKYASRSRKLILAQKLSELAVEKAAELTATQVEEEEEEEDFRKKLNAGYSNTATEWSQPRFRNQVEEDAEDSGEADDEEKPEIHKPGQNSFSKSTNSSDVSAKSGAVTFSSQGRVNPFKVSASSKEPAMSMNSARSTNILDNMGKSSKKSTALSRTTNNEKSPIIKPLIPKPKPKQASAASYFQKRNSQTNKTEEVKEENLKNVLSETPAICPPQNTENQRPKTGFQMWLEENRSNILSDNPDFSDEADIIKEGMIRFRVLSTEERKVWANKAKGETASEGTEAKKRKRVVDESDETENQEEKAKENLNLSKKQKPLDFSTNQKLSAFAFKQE
Description: In order to study the mechanisms by which DHS induces down-regulation of And-1, RRM1, and RRM2 proteins, DHS-resistant HCT116 cells were generated (FIG. 9C). […] Next, it was investigated whether DHS directly binds to And-1, RRM1, or RRM2. A cellular thermal shift assay (Jafari et al., 2014) was conducted for And-1 (FIG. 9E). […] A coimmunoprecipitation (CoIP) assay was conducted to determine whether And-1, RRM1, and RRM2 interact in the same complex. The result implied that […] (FIG. 9F).

And-1 protein = And-1 protein level by Western blot; assay type: cell-based; settings: U2OS and HCT116 cells
Description: (§3) Western blot analysis. Compound-treated cells were harvested and lysed. Protein extracts were subjected to electrophoresis in a SDS-polyacrylamide gel. The resolved proteins were transferred onto polyvinylidene difluoride membranes (Amersham Biosciences, Piscataway, N.J., US). After the blocking step, membranes were incubated with primary IgG antibodies, washed, and then incubated with horseradish peroxidase-conjugated anti-rabbit IgG or anti-mouse IgG secondary antibodies. Western blot signals were visualized by chemiluminescence using SuperSignal West Pico chemiluminescence reagent (Pierce, Rockford, Ill., US).
(§4) The effect of DHS treatment on And-1, RRM1, and RRM2 expression was investigated.

[2] = biological target: T2, truncated-RRM2 protein (deletion of GLU147 to ILE166) (Homo sapiens, UniProt P31350, DEL147-166); test: Thermal shift assay, truncated RRM2; assay type: cell-based; settings: HCT116 cells
T2 construct: expressed in transfected cells; host or cells: HCT116
T2 sequence (P31350 with tags, fused parts or gaps DEL147-166): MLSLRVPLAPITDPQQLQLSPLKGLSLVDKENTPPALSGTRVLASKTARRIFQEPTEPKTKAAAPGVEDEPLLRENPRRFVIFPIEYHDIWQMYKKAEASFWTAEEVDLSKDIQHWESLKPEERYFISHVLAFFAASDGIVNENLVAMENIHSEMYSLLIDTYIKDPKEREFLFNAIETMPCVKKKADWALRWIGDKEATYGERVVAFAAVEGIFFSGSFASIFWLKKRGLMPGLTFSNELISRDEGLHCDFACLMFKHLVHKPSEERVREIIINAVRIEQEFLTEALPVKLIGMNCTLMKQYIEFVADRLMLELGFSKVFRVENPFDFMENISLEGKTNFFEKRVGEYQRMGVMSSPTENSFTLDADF
From the text: To verify the DHS binding site on RRM2, a RRM2 construct with a deletion of GLU147 to ILE166 was generated. […] Since Hu is also known to interact with RRM2 protein, the effect of DHS on Hu binding to RRM2 was investigated using a cellular thermal shift assay with KB-Hu (an Hu resistant oral cancer cell line).

[3] = tested on: phosphorylated histone 2AX; test: γH2AX immunostaining; assay type: cell-based, human; settings: HCT116 cells, 10 μM for 12 hours
SKOV3 = test: DHS and cisplatin, SKOV3 cells; assay type: cell-based, human
From the text: The effect of DHS on a human SKOV3 ovarian cell line and its cisplatin-resistant subline, SKOV3/CP7, was investigated.

HCT116 cells = test: Comet assay; assay type: cell-based, human; settings: 2.5 μM for 24 hours
Description: Comet assay. HCT116 cells were treated with DHS for 0.5 or 24 hours. Afterward, the cells were irradiated with X-rays at a dose of 20 Gy. An aliquot of 80 μL cell suspension were mixed with 400 μL 1.2% low melting point agarose and plated on Fisherfinest microscope slide (Thermo Scientific, Pittsburgh, Pa., US), which had already been layered with 120 μL 1% agarose gel. Cells were then lysed and DNA was electrophoretically separated. The gels were neutralized before staining with 60 μL of 5 μM SYBR green. The shape of the stained DNA mass in at least 50 cells in each sample was analyzed with OpenComet software (MA, US).
To investigate whether inhibition of DNA replication by DHS can trigger DNA damage, the DNA damage markers phosphor-Chk1 (pChk1, Serine 345) and phosphor-Chk2 (pChk2, Threonine 68) were analyzed in DHS-treated HCT116 cells. […] A comet assay was next used to test if DNA double strand breaks are induced by DHS.

RRM1 and RRM2 proteins = biological target: T3, RRM1 and RRM2 proteins (Homo sapiens, UniProt P31350); test: RRM1 and RRM2 protein levels by Western blot; assay type: cell-based; settings: HCT116 cells
T3 construct: endogenous in cells; host or cells: HCT116
T3 sequence (P31350 whole entry): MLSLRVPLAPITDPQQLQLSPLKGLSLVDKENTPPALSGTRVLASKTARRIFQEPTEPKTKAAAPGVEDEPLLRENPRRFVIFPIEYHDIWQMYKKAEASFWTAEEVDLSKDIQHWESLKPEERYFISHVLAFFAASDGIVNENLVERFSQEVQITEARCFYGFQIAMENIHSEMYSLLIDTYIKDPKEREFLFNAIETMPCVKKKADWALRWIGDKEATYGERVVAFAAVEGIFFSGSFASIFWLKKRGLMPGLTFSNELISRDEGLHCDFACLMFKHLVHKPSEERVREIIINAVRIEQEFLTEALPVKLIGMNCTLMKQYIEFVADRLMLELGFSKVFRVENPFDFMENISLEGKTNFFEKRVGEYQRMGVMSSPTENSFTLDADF
Description: as §3, §4

cancer cell lines = test: NCI Development Therapeutics Program cell line growth; assay type: cell-based; settings: NCI DTP cell lines
Description: To confirm the cell killing effect of DHS, a clonogenic colony formation assay was conducted. […] The effect of DHS on growth of cancer cell lines was analyzed using The NCI Development Therapeutics Program (DTP).

Topoisomerase II = Topoisomerase II decatenation assay; assay type: biochemical
From the text: (§5) In addition, resveratrol has been previously reported to interact with DNA grooves (Usha et al., 2006). […] A similar result with And-1, RRM1, and RRM2 was also observed in DHS resistant HCT116 cells (data not shown).

plasmid DNA = test: Incubation with plasmid DNA, UV absorption; assay type: binding
From the text: as §5

MDA-231/GFP = test: In vitro cytotoxicity (SRB assay), MDA-231/GFP; assay type: cell-based; settings: Homo sapiens, MDA-MB-231, 72 hours
Description: as §1, §2

SMILES: Oc1ccc(/C=C/c2ccc(O)cc2)cc1 [DHS, 4,4′-trans-dihydroxystilbene]
- Histology, hearts, livers, lung, and kidneys [1]: no obvious damage
- Histology, spleens [1]: Minor damage
- IC50 (U2OS): 1.23 ± 0.73 µM
- Resensitisation to gemcitabine (RPK-9 cells): resensitized the gemcitabine-resistant pancreatic cancer line, RPK-9, to gemcitabine
- IC50 (HCT116): 2.3 ± 0.78 µM
- Binding to And-1 (cellular thermal shift) (And-1): does not bind to And-1
- And-1 protein level (And-1 protein): caused down-regulation of And-1 protein
- Thermal stability of truncated RRM2 [2]: not able to maintain thermal stability of the truncated-RRM2 protein
- Levels of γH2AX [3]: Increased levels of phosphorylated histone 2AX
- Sensitivity to DHS alone (SKOV3): sensitive to DHS treatment alone
- DNA double strand breaks (lengths of tail moments) (HCT116 cells): caused significant DNA double strand breaks
- RRM1 and RRM2 protein levels (RRM1 and RRM2 proteins): caused down-regulation of RRM1 and RRM2 proteins
- Cancer cell growth (GI50) compared to resveratrol (cancer cell lines): improved effect on suppressing cancer cell growth as compared to resveratrol
- Topoisomerase II activity (decatenation of kDNA) (Topoisomerase II): inhibits Topoisomerase II activity
- UV absorption on incubation with plasmid DNA (DNA binding) (plasmid DNA): increased UV absorption
- IC50 (MDA-231/GFP): 5.32 ± 3.38 µM
